These results are taken from patent US12006330B2, “Substituted macrocyclic compounds and related methods of treatment” (Alkermes, Inc., priority 2020, dated 2024).

What all share (type): in vitro ADME
A short description of data set [1]: Hepatocytes stability assay (human hepatocytes). The following applies: both sexes, human, cryopreserved hepatocytes, cryopreserved human hepatocytes (pool of 50 mixed gender); 1 μM test compound; 1×10^6 cell/mL; 37 degrees C; read-out: CLint (μL/min/million cells). Here is the method:
(§1) In vitro metabolic stability was assessed using cryopreserved hepatocytes from male Sprague Dawley rats and a pool of 50 mixed gender humans (BioIVT, Baltimore, MD). The incubation mixtures were prepared by mixing 250 μL of pre-warmed KHB (Krebs-Henseleit buffer) containing 2×10^6 cell/mL of hepatocytes with 250 μL of pre-warmed KHB buffer containing 2 μM of test compounds in a 48-well plate, giving a final concentration of 1 μM test compound (0.1% DMSO) and 1×10^6 cell/mL of hepatocytes. The reaction mixture was incubated at 37 degrees C. A 50 μL aliquot of incubation mixture was taken at time points (0, 15, 30, 60, 120 and 240 minutes) and transferred into a 96-well plate containing 300 μL ice-cold acetonitrile (containing 30 ng/mL of labetalol and 10 ng/mL of Naltrexone-d3 as internal standards) and immediately placed in ice to terminate the reaction. Samples were centrifuged, and supernatants were transferred into 96-well plates for liquid chromatography with tandem mass spectrometry (LC-MS/MS) analysis to monitor the depletion of the test compound.
(§2) Data was calculated as percent remaining by assuming zero-minute time point peak area ratio (analyte/IS) as 100% and dividing remaining time point peak area ratios by zero-minute time point peak area ratio. Data were fitted to a first-order decay model to determine half-life. From a plot of log (ln) peak area against time, the slope of the line was determined. Subsequently, half-life (T1/2) and intrinsic clearance (CLint) were calculated using the equations below: Elimination rate constant (k)=(−slope) Half-life (T1/2) min=0.693/k Intrinsic Clearance (CLint) (mL/min/million cells)=(V×0.693)/T1/2 V=incubation volume mL/number of cells The in vitro T1/2 was converted to in vitro intrinsic clearance (CLint,hep) in units of mL/min/kg using the formula shown below:
(§3) [formula] The in vitro intrinsic clearance (CLint,hep) was scaled to in vivo hepatic clearance (CL,hep) using the following equation which was adapted from a well-stirred model.
(§4) [formula] where Q is the liver blood flow and fu is the fraction unbound (assumed to be unity in this case). All parameters used in the calculation are shown below (Table 4).
(§5) The extraction ratio (ER) was calculated by dividing the hepatic clearance of a compound to the liver blood flow. The data reported in Table 5 were obtained according to the human hepatocytes stability assay described above.

In data set [2] the test system is human hepatocytes. The experiment in a line: Hepatocytes stability assay (human hepatocytes). The following applies: human hepatocytes; scaled hepatic clearance divided by liver blood flow (well-stirred model, fu assumed unity). The procedure: as §1, §2, §3, §4, §5
The subject of data set [3] is MDR1. In words: MDCK-MDR1 permeability assay. The following applies: dog, MDCK-MDR1, MDCK-MDR1 cells; for efflux ratio at 2 h, 3 μM: Papp B→A divided by Papp A→B, read-out: Efflux ratio (ER); for Papp A→B at 2 h, 3 μM: test compound 3 μM, 2 hours at 37 degrees C, apical to basolateral. The procedure: The bidirectional permeability (Apical to Basal and Basal to Apical directions) of test compounds in MDCK-MIDR1 cells were evaluated using MDCK-MIDR1 cells seeded in Solvo PreadyPort™ MDCK 96-well plate. Once the plate was received from ReadyCell (Barcelona, Spain), it was treated as per PreadyPort™ user's manual.
For the Apical to Basolateral (A→B) permeability, 80 μL of test compound (3 μM) co-dosed with LY (Lucifer Yellow) (100 μM) in HBSS (Hank's Balanced Salt Solution) assay buffer was added to the donor side (A) while 250 μL of HBSS buffer was added to the receiver side (B). For the Basolateral to Apical (B→A) permeability, 255 μL of test compound (3 μM) in HBSS assay buffer was added to the donor side (B) while 75 μL of HBSS buffer containing LY (100 μM) was added to the receiver side (A).
The plate was placed in an incubator set at 37 degrees C. After 10 minutes of pre-warming, 5 μL aliquot was taken from donor compartment and set aside as the dosing solution. The MDCK-MDR1 incubation plate was placed back into the incubator for 2 hours of incubation at 37 degrees C. After 2 hours of incubation, 25 μL and 5 μL aliquots were removed from the receiver and donor sides, respectively. To the 5 μL aliquots taken from the donor sides (before and after a 2-hour incubation) were diluted with 20 μL of the HBSS buffer. All samples were mixed with 150 μL with acetonitrile containing internal standard (IS) and 200 μL water, and analyzed by LC-MS/MS.
The apparent permeability (Papp) was calculated using the following formula: Papp=dQ/dt×1/A×C0 where: • dQ/dt: amount of translocated material over incubation time (nmol/s) • A: area of insert (0.14 cm^2 for PreadyPort™ MDR1-96) • C0: initial concentration of product applied in apical (A→B) or basal (B→A) compartment (nmol/mL)
The efflux ratio (ER) was measured by dividing the Papp (basolateral to apical direction) by Papp (apical to basolateral direction). It is a general measure of the involvement of active processes. An ER>2 is considered positive for active transport.
Percent recovery was measured using the following equation:
[formula] where: • VR: Volume of the receiver compartment (mL) • VD: Volume of the donor compartment (mL) • CN: Concentration of dosing solution (μM) collected after 10 minutes of incubation • CR^final: Receiver concentration at the end of the incubation (μM) • CD^final: Donor concentration at the end of the incubation (μM)
The data reported in Table 3 were obtained according to the MDCK-MDR1 permeability assay described above.

A value given as a limit tells only on which side of the number the result lay.

As to `CC(C)S(=O)(=O)N[C@H]1CCCN2CCOc3ncccc3[C@H]3CC[C@H](CC3)OCC12` (stereo in doubt) [Compound 64], in data set [1], the hepatocyte CLint at 1 μM was 46 µL/min/1e6 cells. Further, the “Extraction Ratio (ER)” value in data set [2] was determined as 0.87. Besides, in data set [3], the efflux ratio at 2 h, 3 μM is 1.2 and the Papp A→B at 2 h, 3 μM came out at 12 ×10⁻⁶ cm/s.
For `O=C1COc2nnccc2[C@H]2CC[C@H](CC2)OCC2[C@@H](NS(=O)(=O)C3CC3)CCCN12` (stereo in doubt) [Compound 67], in that order: 2.5 µL/min/1e6 cells, 0.27, 63 and less than 0.036 ×10⁻⁶ cm/s.
With `Cc1ncnc2c1[C@H]1CC[C@H](CC1)OCC1[C@@H](NS(=O)(=O)C(C)C)CCCN1C(=O)CO2` (stereo in doubt) [Compound 69], the hepatocyte CLint at 1 μM in data set [1] is 3.4 µL/min/1e6 cells. In data set [2], the “Extraction Ratio (ER)” value is 0.34. Further, in data set [3], the efflux ratio at 2 h, 3 μM was more than 100 and the Papp A→B at 2 h, 3 μM is less than 0.041 ×10⁻⁶ cm/s.
As to `Cc1cccc2c1[C@H]1CC[C@H](CC1)OCC1[C@@H](NS(=O)(=O)C3CC3)CCN1C(=O)CO2` (stereo in doubt) [Compound 70], in data set [1], the hepatocyte CLint at 1 μM came to 45 µL/min/1e6 cells. In data set [2], the “Extraction Ratio (ER)” value is 0.87. For the same molecule, in data set [3], the efflux ratio at 2 h, 3 μM stood at 4.2 and the Papp A→B at 2 h, 3 μM stood at 3.7 ×10⁻⁶ cm/s.
For `O=C1COc2cccc(F)c2[C@H]2CC[C@H](CC2)OCC2[C@@H](NS(=O)(=O)C3CC3)CCCN12` (stereo in doubt) [Compound 74], in that order: 15 µL/min/1e6 cells, 0.69, 41 and 0.62 ×10⁻⁶ cm/s.
`Cc1c(Cl)ccc2c1[C@H]1CC[C@H](CC1)OCC1[C@@H](NS(=O)(=O)C3CC3)CCCN1C(=O)CO2` (stereo in doubt) [Compound 75]: the hepatocyte CLint at 1 μM in data set [1] stood at 11 µL/min/1e6 cells. For the same molecule, the “Extraction Ratio (ER)” value in data set [2] came out at 0.61. In data set [3], the efflux ratio at 2 h, 3 μM was 65 and the Papp A→B at 2 h, 3 μM was found to be 0.3 ×10⁻⁶ cm/s.
For `Cc1ccc2c(c1C)[C@H]1CC[C@H](CC1)OCC1[C@@H](NS(=O)(=O)C(C)C)CCCN1C(=O)CO2` (stereo in doubt) [Compound 76], in that order: 9.8 µL/min/1e6 cells, 0.59, 28 and 0.57 ×10⁻⁶ cm/s.
With `Cc1ccc2c(c1C)[C@H]1CC[C@H](CC1)OCC1[C@@H](NS(=O)(=O)C3CC3)CCCN1C(=O)CO2` (stereo in doubt) [Compound 77], the hepatocyte CLint at 1 μM in data set [1] worked out at 12 µL/min/1e6 cells. Also, the “Extraction Ratio (ER)” value in data set [2] worked out at 0.63. Also, in data set [3], the efflux ratio at 2 h, 3 μM came to 27 and the Papp A→B at 2 h, 3 μM stood at 0.79 ×10⁻⁶ cm/s.
For `Cc1ccc2c(c1C)[C@H]1CC[C@H](CC1)OCC1[C@@H](NS(C)(=O)=O)CCCN1C(=O)CO2` (stereo in doubt) [Compound 78], in that order: 7.2 µL/min/1e6 cells, 0.52, 74 and 0.41 ×10⁻⁶ cm/s.
On the same counts, the results for `Cc1cccc2c1[C@H]1CC[C@H](CC1)OCC1[C@@H](NS(=O)(=O)C(C)C)CCN1C(=O)CO2` (stereo in doubt) [Compound 79] are 46 µL/min/1e6 cells, 0.87, 3.8 and 5.7 ×10⁻⁶ cm/s.
On the same counts, the results for `O=C1COc2ccccc2[C@H]2CC[C@H](CC2)OCC2[C@@H](NS(=O)(=O)C3COC3)CCCN12` (stereo in doubt) [Compound 80] are 11 µL/min/1e6 cells, 0.63, 51 and 0.79 ×10⁻⁶ cm/s.
As to `Cc1ncnc2c1[C@H]1CC[C@H](CC1)OCC1[C@@H](NS(C)(=O)=O)CCN1C(=O)CO2` (stereo in doubt) [Compound 82], the hepatocyte CLint at 1 μM in data set [1] is less than 1.9 µL/min/1e6 cells. In addition, the “Extraction Ratio (ER)” value in data set [2] was less than 0.22. In addition, in data set [3], the efflux ratio at 2 h, 3 μM came to 59 and the Papp A→B at 2 h, 3 μM was 0.58 ×10⁻⁶ cm/s.
For `Cc1ncnc2c1[C@H]1CC[C@H](CC1)OCC1[C@@H](NS(=O)(=O)C3CC3)CCN1C(=O)CO2` (stereo in doubt) [Compound 83], in that order: 2.6 µL/min/1e6 cells, 0.28, 46 and 0.85 ×10⁻⁶ cm/s.
Regarding `Cc1ncnc2c1[C@H]1CC[C@H](CC1)OCC1[C@@H](NS(=O)(=O)C(C)C)CCN1C(=O)CO2` (stereo in doubt) [Compound 86], the hepatocyte CLint at 1 μM in data set [1] was found to be 4.1 µL/min/1e6 cells. Moreover, the “Extraction Ratio (ER)” value in data set [2] is reported as 0.38. In addition, in data set [3], the efflux ratio at 2 h, 3 μM turned out to be 24 and the Papp A→B at 2 h, 3 μM amounted to 1.9 ×10⁻⁶ cm/s.
On the same counts, the results for `Cc1ccnc2c1[C@H]1CC[C@H](CC1)OCC1[C@@H](NS(=O)(=O)C3COC3)CCCN1C(=O)CO2` (stereo in doubt) [Compound 88] are 6.7 µL/min/1e6 cells, 0.50, 25 and 0.84 ×10⁻⁶ cm/s.

As a reminder, the Papp A→B is the apparent permeability from the apical to the basolateral side of a cell layer.
